Measured values taken from doi:10.1101/2025.08.21.671483v1, “In vitro and in vivo activity profiles of broad-spectrum bacterial ATP synthase inhibitors” (biorxiv, 2025).
In brackets after ≈: the same amount, converted by molar mass. Read-outs that look alike come from different tables or passages of the source.

Key:
[1] = system: T1, E. coli MC4100 lptD4213; test: microbe, parasite or virus in culture; settings: Escherichia coli, MC4100LPTD4213, read-out: MIC
T1 construct: MC4100 lptD4213 membrane-compromised

[2] = system: S. aureus ATCC 29740hemB; test: microbe, parasite or virus in culture; settings: Staphylococcus aureus, ATCC29740HEMB, read-out: MIC
[3] = target: T2, S. aureus ATP synthase (Staphylococcus aureus, UniProt Q99SF0); test: ATP production by membrane vesicles, luciferase luminescence; type: biochemical; settings: […] NADH, 1 mM ADP, 10 mM potassium phosphate; 30 min preincubation, 60 min reaction
T2 construct: gene atpE
Description: ATP production by membrane vesicles, luciferase luminescence on S. aureus ATP synthase

[4] = system: T3, E. coli MC4100 WT; test: microbe, parasite or virus in culture; parameters: species or system bacteria; CLSI broth microdilution MIC, no visible growth; settings: Escherichia coli, MC4100WT
T3 construct: MC4100 (ATCC 35695)

[5] = target: T4, E. coli ATP synthase (Escherichia coli, UniProt P68699); test: ATP production by membrane vesicles, luciferase luminescence; type: biochemical; settings: […] NADH, 1 mM ADP, 10 mM potassium phosphate; 30 min preincubation, 60 min reaction
T4 construct: gene atpE
Description: ATP production by membrane vesicles, luciferase luminescence on E. coli ATP synthase

[6] = system: T5, S. aureus ATCC 29740 (Newbould); test: microbe, parasite or virus in culture; parameters: species or system bacteria; CLSI broth microdilution MIC, no visible growth; settings: Staphylococcus aureus
T5 construct: ATCC 29740 (Newbould)

[7] = system: T6, E. coli ATCC 25922; test: microbe, parasite or virus in culture; parameters: species or system bacteria; CLSI broth microdilution MIC, no visible growth; settings: Escherichia coli
T6 construct: ATCC 25922

[8] = system: T7, E. coli MC4100 acrAB; test: microbe, parasite or virus in culture; settings: Escherichia coli, MC4100ACRAB, read-out: MIC
T7 construct: MC4100 acrAB efflux-deficient

[9] = system: T8, Escherichia coli ATCC 35218; test: microbe, parasite or virus in culture; parameters: species or system bacteria; CLSI broth microdilution MIC, no visible growth
T8 construct: ATCC 35218

[10] = system: T9, Escherichia coli ec310; test: microbe, parasite or virus in culture; parameters: species or system bacteria; CLSI broth microdilution MIC, no visible growth
T9 construct: ec310

[11] = system: T10, Escherichia coli ec308; test: microbe, parasite or virus in culture; parameters: species or system bacteria; CLSI broth microdilution MIC, no visible growth
T10 construct: ec308

[12] = system: T11, Escherichia coli ec309; test: microbe, parasite or virus in culture; parameters: species or system bacteria; CLSI broth microdilution MIC, no visible growth
T11 construct: ec309

[13] = system: T12, Escherichia coli ec305; test: microbe, parasite or virus in culture; parameters: species or system bacteria; CLSI broth microdilution MIC, no visible growth
T12 construct: ec305

[14] = system: T13, Escherichia coli ATCC BAA2471; test: microbe, parasite or virus in culture; parameters: species or system bacteria; CLSI broth microdilution MIC, no visible growth
T13 construct: ATCC BAA-2471

[15] = system: T14, Escherichia coli 95882 CW-2011; test: microbe, parasite or virus in culture; parameters: species or system bacteria; CLSI broth microdilution MIC, no visible growth
T14 construct: 95882 CW-2011

[16] = system: T15, Escherichia coli ec302; test: microbe, parasite or virus in culture; parameters: species or system bacteria; CLSI broth microdilution MIC, no visible growth
T15 construct: ec302

[17] = system: T6, E. coli ATCC 25922; test: microbe, parasite or virus in culture; parameters: species or system bacteria; CLSI broth microdilution MIC, no visible growth; settings: Escherichia coli; remark: listed apart in the source
[18] = system: T16, Escherichia coli 70122 CW-2007; test: microbe, parasite or virus in culture; parameters: species or system bacteria; CLSI broth microdilution MIC, no visible growth
T16 construct: 70122 CW-2007

Question: With `C[C@H]1CC[C@]2(NC1)O[C@H]1C[C@H]3[C@@H]4CC[C@H]5CC(NC[C@H](N)Cc6c[nH]c7ccccc67)CC[C@]5(C)[C@H]4CC[C@]3(C)[C@H]1[C@@H]2C` (stereo partly drawn) [TM-247] as the compound, how does the MIC [1] read?
Answer: 2 µg/mL (≈ 3.41 µM)

Question: And the MIC [2]?
Answer: ≤ 0.25 µg/mL

Question: And the IC50 [3]?
Answer: 1.06 ± 0.24 µM

Question: And the MIC ([4]; read-out: TM-247 MIC)?
Answer: 16 µg/mL (≈ 27.3 µM)

Question: And the IC50 [5]?
Answer: 2.12 ± 0.32 µM

Question: What about the MIC ([6]; ATCC29740, read-out: TM-247 MIC) of the same compound?
Answer: 2 µg/mL (≈ 3.41 µM)

Question: What about the MIC ([7]; ATCC25922, read-out: TM-247 MIC) of the same compound?
Answer: 8 µg/mL (≈ 13.6 µM)

Question: And the MIC [8]?
Answer: 4 µg/mL (≈ 6.82 µM)

Question: For `CN(C)[C@@H]1C(O)=C(C(N)=O)C(=O)[C@@]2(O)C(O)=C3C(=O)c4c(O)cccc4[C@@](C)(O)[C@H]3C[C@@H]12` [TET, tetracycline], which MIC ([9]; ATCC35218, read-out: TET MIC) is on record?
Answer: 0.25 µg/mL (≈ 0.563 µM)

Question: What about the MIC ([10]; EC310, read-out: TET MIC) of the same compound?
Answer: 2 µg/mL (≈ 4.5 µM)

Question: And the MIC ([11]; EC308, read-out: TET MIC)?
Answer: 128 µg/mL (≈ 288 µM)

Question: And the MIC ([12]; EC309, read-out: TET MIC)?
Answer: 2 µg/mL (≈ 4.5 µM)

Question: And the MIC ([13]; EC305, read-out: TET MIC)?
Answer: > 128 µg/mL

Question: And the MIC ([14]; ATCCBAA2471, read-out: TET MIC)?
Answer: 128 µg/mL (≈ 288 µM)

Question: And the MIC ([15]; 95882CW2011, read-out: TET MIC)?
Answer: 1 µg/mL (≈ 2.25 µM)

Question: And the MIC ([16]; EC302, read-out: TET MIC)?
Answer: 2 µg/mL (≈ 4.5 µM)

Question: And the MIC ([17]; ATCC25922, read-out: TET MIC)?
Answer: 1 µg/mL (≈ 2.25 µM)

Question: Which MIC [1] does the source give for `C[C@H]1CC[C@]2(NC1)O[C@H]1C[C@H]3[C@@H]4CC[C@H]5CC(NC[C@H](N)Cc6ccc(C(F)(F)F)cc6)CC[C@]5(C)[C@H]4CC[C@]3(C)[C@H]1[C@@H]2C` (stereo partly drawn) [TM-303] here?
Answer: 2 µg/mL (≈ 3.25 µM)

Question: And the MIC [2]?
Answer: ≤ 0.25 µg/mL

Question: What about the IC50 [3] of the same compound?
Answer: 1.32 ± 0.22 µM

Question: What about the MIC ([4]; read-out: TM-303 MIC) of the same compound?
Answer: 16 µg/mL (≈ 26 µM)

Question: And the IC50 [5]?
Answer: 3.15 ± 0.73 µM

Question: And the MIC ([6]; ATCC29740, read-out: TM-303 MIC)?
Answer: 4 µg/mL (≈ 6.49 µM)

Question: What about the MIC ([7]; ATCC25922, read-out: TM-303 MIC) of the same compound?
Answer: 8 µg/mL (≈ 13 µM)

Question: What about the MIC [8] of the same compound?
Answer: 4 µg/mL (≈ 6.49 µM)

Question: Which results are given for `CC(C)(O/N=C(\C(=O)N[C@@H]1C(=O)N2C(C(=O)[O-])=C(C[n+]3ccccc3)CS[C@H]12)c1csc(N)n1)C(=O)O` [CAZ, ceftazidime]?
Answer: MIC ([9]; ATCC35218, read-out: CAZ MIC): 0.25 µg/mL (≈ 0.457 µM); MIC ([10]; EC310, read-out: CAZ MIC): 64 µg/mL (≈ 117 µM); MIC ([11]; EC308, read-out: CAZ MIC): 128 µg/mL (≈ 234 µM); MIC ([12]; EC309, read-out: CAZ MIC): 64 µg/mL (≈ 117 µM); MIC ([13]; EC305, read-out: CAZ MIC): 1 µg/mL (≈ 1.83 µM); MIC ([14]; ATCCBAA2471, read-out: CAZ MIC): > 128 µg/mL; MIC ([18]; 70122CW2007, read-out: CAZ MIC): 64 µg/mL (≈ 117 µM); MIC ([15]; 95882CW2011, read-out: CAZ MIC): 128 µg/mL (≈ 234 µM); MIC ([16]; EC302, read-out: CAZ MIC): > 128 µg/mL; MIC ([17]; ATCC25922, read-out: CAZ MIC): 0.12 µg/mL (≈ 0.22 µM)

Question: With `O=C1CN(/N=C/c2ccc([N+](=O)[O-])o2)C(=O)N1` [NIT, nitrofurantoin] as the compound, how does the MIC ([9]; ATCC35218, read-out: NIT MIC) read?
Answer: 0.25 µg/mL (≈ 1.05 µM)

Question: And the MIC ([10]; EC310, read-out: NIT MIC)?
Answer: 8 µg/mL (≈ 33.6 µM)

Question: What about the MIC ([11]; EC308, read-out: NIT MIC) of the same compound?
Answer: 8 µg/mL (≈ 33.6 µM)

Question: What about the MIC ([12]; EC309, read-out: NIT MIC) of the same compound?
Answer: 16 µg/mL (≈ 67.2 µM)

Question: What about the MIC ([13]; EC305, read-out: NIT MIC) of the same compound?
Answer: 8 µg/mL (≈ 33.6 µM)

Question: What about the MIC ([14]; ATCCBAA2471, read-out: NIT MIC) of the same compound?
Answer: 32 µg/mL (≈ 134 µM)

Question: What about the MIC ([18]; 70122CW2007, read-out: NIT MIC) of the same compound?
Answer: 32 µg/mL (≈ 134 µM)

Question: What about the MIC ([15]; 95882CW2011, read-out: NIT MIC) of the same compound?
Answer: 8 µg/mL (≈ 33.6 µM)

Question: What about the MIC ([16]; EC302, read-out: NIT MIC) of the same compound?
Answer: 16 µg/mL (≈ 67.2 µM)

Question: And the MIC ([17]; ATCC25922, read-out: NIT MIC)?
Answer: 8 µg/mL (≈ 33.6 µM)
